The text below walks through data of patent EP4722201A1, “3-PHENYLISOXAZOLINE-5-CARBOXAMIDE COMPOUND, AND PREPARATION METHOD THEREFOR, HERBICIDAL COMPOSITION THEREOF AND USE THEREOF” (Jiangsu Flag Chemical Industry Co., Ltd, priority 2023, dated 2024).

Assay in all cases: Indoor herbicide activity determination, Seed Treatment; pre-emergence (soil spray)
What all share (type): in vivo

The subject of assay [1] is Eclipta prostrata. The conditions noted are these: 60 g a.i./ha, read-out: Herbicidal activities (inhibition rate) Eclipta prostrata. The source says: (§1) The testing method for herbicide activity of the compound of the present invention was as follows:
(§2) Seed Treatment; pre-emergence: quantitative seeds of gramineous weeds (Echinochloa crusgalli, Eleusine indica, Digitaria sanguinalis, Alopecurus japonicus, Beckmannia syzigachne, Leptochloa chinensis, Polypogon fugax, Alopecurus aequalis, Lolium multiflorum, Poa annua, Aegilops tauschii, Avena fatua, Alopecurus myosuroides, Alopecurus japonicus and Alopecurus aequalis), broad-leaved weeds (Eclipta prostrata, Amaranthus retroflexus, Rorippa indica, Malachium aquaticum, Veronica polita, Conyza canadensis, Sesbania cannabina, Sagittariatrifolia and Schoenoplectiella juncoides), and Cyperus iria were sown in plastic pots having a diameter of 7 cm and holes at the bottom and filled with nutrient soil (sandy soil, pH 6.1, organic matter 1%) respectively, the seeds were covered with an appropriate amount of soil after being sown, then the soil was wetted with water from the bottom, the seeds were cultured in a constant-temperature illuminated culture room for 24 h, and the soil was sprayed by using a 3WP-2000 traveling spray tower produced by the Nanjing Institute of Agricultural Mechanization of the Ministry of Agriculture, where a rotational speed of a main shaft was 96 mm/r, a spray height was 300 mm, an effective spraying range of a nozzle was 350 mm, a spray area was 0.35 m^2, and a flow rate at the nozzle was 390 mL/min.
(§3) Post-emergence: an appropriate quantity of seeds of gramineous weeds (Echinochloa crusgalli, Eleusine indica, Digitaria sanguinalis, Alopecurus japonicus, Beckmannia syzigachne, Leptochloa chinensis, Polypogon fugax, Alopecurus aequalis, Lolium multiflorum, Poa annua, Aegilops tauschii, Avena fatua, Alopecurus myosuroides, Alopecurus japonicus and Alopecurus aequalis), broad-leaved weeds (Eclipta prostrata, Amaranthus retroflexus, Rorippa indica, Malachium aquaticum, Veronica polita, Conyza canadensis, Sesbania cannabina, Sagittariatrifolia and Schoenoplectiella juncoides), and Cyperus iria were sown in plastic pots having a diameter of 7 cm and holes at the bottom and filled with nutrient soil (sandy soil, pH 6.1, organic matter 1%) respectively, the seeds were covered with an appropriate amount of soil after being sown, then the soil was wetted with water from the bottom, the seeds were cultured in a constant-temperature illuminated culture room until a 2-4 leaf stage, and stems and leaves underwent spray treatment. After the treatment, the test materials were placed in a laboratory and cultured in the constant-temperature illuminated culture room after the liquid was naturally dry in the shade, and results were determined 21 days later. Inhibition rate of fresh weight % = (1−(fresh weight of treated plants)/(fresh weight of control plants)) × 100% [formula]

In assay [2] the test system is Cyperus iria. The note with it: 60 g a.i./ha, read-out: Herbicidal activities (inhibition rate) Cyperus iria.
From the text: as §1, §2, §3

Assay [3] concerns Eleusine indica. The conditions noted are these: Dosage 120 g a.i./ha.
From the text: as §1, §2, §3

The test system of assay [4] is Lolium multiflorum. The note with it: Dosage 120 g a.i./ha.
From the text: as §1, §2, §3

For assay [5], the system named is Alopecurus japonicus. The note with it: Dosage 120 g a.i./ha.
From the text: as §1, §2, §3

Assay [6] concerns Alopecurus myosuroides. The conditions noted are these: Dosage 120 g a.i./ha.
From the text: as §1, §2, §3

The subject of assay [7] is Leptochloa chinensis. The conditions noted are these: Dosage 120 g a.i./ha.
From the text: as §1, §2, §3

As for `C#CC(CC)OC(=O)[C@@H]1C=C[C@H](NC(=O)[C@@]2(C)CC(c3cc(Cl)cc(C(F)(F)F)c3)=NO2)C1` (some centres unmarked) [I-514], the inhibition at 60 g/ha in assay [1] and in assay [2] was 80 to 100% in each case. Also, the “Herbicidal activity (inhibition rate class), Eleusine indica” value in assay [3] is “A (A indicates that the inhibition rate was greater than or equal to 80% to 100%)”. Further, the “Herbicidal activity (inhibition rate class), Lolium multiflorum” value in assay [4] is “A (A indicates that the inhibition rate was greater than or equal to 80% to 100%)”. In addition, the “Herbicidal activity (inhibition rate class), Alopecurus japonicus” value in assay [5] is recorded as “A (A indicates that the inhibition rate was greater than or equal to 80% to 100%)”. Further, the “Herbicidal activity (inhibition rate class), Alopecurus myosuroides” value in assay [6] is reported as “A (A indicates that the inhibition rate was greater than or equal to 80% to 100%)”. Besides, the “Herbicidal activity (inhibition rate class), Leptochloa chinensis” value in assay [7] is recorded as “A (A indicates that the inhibition rate was greater than or equal to 80% to 100%)”.

For the compound `COC(=O)[C@@H]1C=C[C@H](NC(=O)[C@@]2(C(F)F)CC(c3cc(F)cc(C(F)(F)F)c3)=NO2)C1` [I-532], the inhibition at 60 g/ha in assay [1] and in assay [2] was 80 to 100% throughout. Also, the “Herbicidal activity (inhibition rate class), Eleusine indica” value in assay [3] is given as “A (A indicates that the inhibition rate was greater than or equal to 80% to 100%)”. Also, the “Herbicidal activity (inhibition rate class), Leptochloa chinensis” value in assay [7] was “A (A indicates that the inhibition rate was greater than or equal to 80% to 100%)”.

Regarding `C=C[C@]1(C(=O)N[C@H]2C=C[C@@H](C(=O)OCc3ccccc3)C2)CC(c2cc(F)cc(C(F)(F)F)c2)=NO1` [I-439], the inhibition at 60 g/ha in assay [1] and in assay [2] was 80 to 100% each time. In addition, the “Herbicidal activities, Eleusine indica (inhibition rate class)” value in assay [3] was “A (A indicates that the inhibition rate was greater than or equal to 80% to 100%)”. Besides, the “Herbicidal activities, Leptochloa chinensis (inhibition rate class)” value in assay [7] is listed as “A (A indicates that the inhibition rate was greater than or equal to 80% to 100%)”.

Regarding `C=C[C@]1(C(=O)N[C@H]2C=C[C@@H](C(=O)OC(C)C)C2)CC(c2cc(Cl)cc(C(F)(F)F)c2)=NO1` [I-483], the inhibition at 60 g/ha in assay [1] and in assay [2] was 80 to 100% throughout. In assay [3], the “Herbicidal activity (inhibition rate class), Eleusine indica” value is recorded as “A (A indicates that the inhibition rate was greater than or equal to 80% to 100%)”. Besides, the “Herbicidal activity (inhibition rate class), Leptochloa chinensis” value in assay [7] is given as “A (A indicates that the inhibition rate was greater than or equal to 80% to 100%)”.

Turning to `C=C[C@]1(C(=O)N[C@H]2C=C[C@@H](C(=O)OC3CCC3)C2)CC(c2cc(Cl)cc(C(F)(F)F)c2)=NO1` [I-478], the inhibition at 60 g/ha in assay [1] and in assay [2] was 80 to 100% in each case. Besides, the “Herbicidal activity (inhibition rate class), Eleusine indica” value in assay [3] was “A (A indicates that the inhibition rate was greater than or equal to 80% to 100%)”. In addition, the “Herbicidal activity (inhibition rate class), Lolium multiflorum” value in assay [4] is given as “B (B indicates that the inhibition rate was greater than or equal to 60% to less than 80%)”. Also, in assay [5], the “Herbicidal activity (inhibition rate class), Alopecurus japonicus” value was “A (A indicates that the inhibition rate was greater than or equal to 80% to 100%)”. In assay [6], the “Herbicidal activity (inhibition rate class), Alopecurus myosuroides” value is “A (A indicates that the inhibition rate was greater than or equal to 80% to 100%)”. Besides, the “Herbicidal activity (inhibition rate class), Leptochloa chinensis” value in assay [7] was “A (A indicates that the inhibition rate was greater than or equal to 80% to 100%)”.

Consider `C=CC(C)OC(=O)[C@@H]1C=C[C@H](NC(=O)[C@@]2(C=C)CC(c3cc(F)cc(C(F)(F)F)c3)=NO2)C1` (some centres unmarked) [I-444], for which the inhibition at 60 g/ha in assay [1] and in assay [2] was 80 to 100% throughout. In addition, the “Herbicidal activities, Eleusine indica (inhibition rate class)” value in assay [3] is reported as “A (A indicates that the inhibition rate was greater than or equal to 80% to 100%)”. In assay [7], the “Herbicidal activities, Leptochloa chinensis (inhibition rate class)” value was “A (A indicates that the inhibition rate was greater than or equal to 80% to 100%)”.

Consider `C=C[C@]1(C(=O)N[C@H]2C=C[C@@H](C(=O)OCCCCCCC)C2)CC(c2cc(F)cc(C(F)(F)F)c2)=NO1` [I-431], for which the inhibition at 60 g/ha in assay [1] and in assay [2] was 80 to 100% each time. The “Herbicidal activities, Eleusine indica (inhibition rate class)” value in assay [3] is “A (A indicates that the inhibition rate was greater than or equal to 80% to 100%)”. Moreover, in assay [4], the “Herbicidal activities, Lolium multiflorum (inhibition rate class)” value was “A (A indicates that the inhibition rate was greater than or equal to 80% to 100%)”. In assay [5], the “Herbicidal activities, Alopecurus japonicus (inhibition rate class)” value is given as “A (A indicates that the inhibition rate was greater than or equal to 80% to 100%)”. For the same compound, the “Herbicidal activities, Alopecurus myosuroides (inhibition rate class)” value in assay [6] is reported as “A (A indicates that the inhibition rate was greater than or equal to 80% to 100%)”. Besides, the “Herbicidal activities, Leptochloa chinensis (inhibition rate class)” value in assay [7] is “A (A indicates that the inhibition rate was greater than or equal to 80% to 100%)”.

On to `O=C(N[C@H]1C[C@@H](C(=O)OC2CCCC2)C1)[C@@]1(C(F)(F)F)CC(c2cc(F)cc(OC(F)(F)F)c2)=NO1` [I-253], for which the inhibition at 60 g/ha in assay [1] was in the range of 60 to 80%; in assay [2] it was 80 to 100%. Moreover, the “Herbicidal activities, Eleusine indica (inhibition rate class)” value in assay [3] is on record as “A (A indicates that the inhibition rate was greater than or equal to 80% to 100%)”. In addition, in assay [5], the “Herbicidal activities, Alopecurus japonicus (inhibition rate class)” value is “A (A indicates that the inhibition rate was greater than or equal to 80% to 100%)”. Also, the “Herbicidal activities, Alopecurus myosuroides (inhibition rate class)” value in assay [6] is recorded as “A (A indicates that the inhibition rate was greater than or equal to 80% to 100%)”. In addition, the “Herbicidal activities, Leptochloa chinensis (inhibition rate class)” value in assay [7] is on record as “A (A indicates that the inhibition rate was greater than or equal to 80% to 100%)”.

Take `C=C[C@]1(C(=O)N[C@H]2C=C[C@@H](C(=O)OC)C2)CC(c2cc(Cl)cc(OC(F)(F)F)c2)=NO1` [I-471]: the inhibition at 60 g/ha in assay [1] and in assay [2] was 80 to 100% throughout. Also, the “Herbicidal activity (inhibition rate class), Eleusine indica” value in assay [3] is recorded as “A (A indicates that the inhibition rate was greater than or equal to 80% to 100%)”. The “Herbicidal activity (inhibition rate class), Leptochloa chinensis” value in assay [7] is listed as “A (A indicates that the inhibition rate was greater than or equal to 80% to 100%)”.

Turning to `O=C(N[C@H]1C[C@@H](C(=O)OCC(F)(F)C(F)(F)F)C1)[C@@]1(C(F)(F)F)CC(c2cc(F)cc(OC(F)(F)F)c2)=NO1` [I-254], the inhibition at 60 g/ha in assay [1] and in assay [2] was 80 to 100% throughout. Moreover, the “Herbicidal activities, Eleusine indica (inhibition rate class)” value in assay [3] is “A (A indicates that the inhibition rate was greater than or equal to 80% to 100%)”. Further, the “Herbicidal activities, Alopecurus japonicus (inhibition rate class)” value in assay [5] is given as “A (A indicates that the inhibition rate was greater than or equal to 80% to 100%)”. Also, the “Herbicidal activities, Alopecurus myosuroides (inhibition rate class)” value in assay [6] is “A (A indicates that the inhibition rate was greater than or equal to 80% to 100%)”. For the same compound, the “Herbicidal activities, Leptochloa chinensis (inhibition rate class)” value in assay [7] was “A (A indicates that the inhibition rate was greater than or equal to 80% to 100%)”.
